The target of one test is human Gal-1 (hGal-1) (Homo sapiens (Human), UniProt P09382). The experiment in a line: competitive binding assay: biotinylated hGal-1 binding to microplate-adsorbed asialofetuin (ASF). The settings on record: Table 15; read-out: IC50 (Galectin-1 inhibition). In outline: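 Biotinylated human Gal-1 (300-1000 ng/mL) competes with serially diluted compound for binding to ASF-coated plates, 3 h at 4° C. Bound protein detected with streptavidin-peroxidase and ABTS substrate (spectrophotometric). IC50 given as mean of several measurements.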
human Gal-1 (hGal-1), sequence (P09382 whole entry): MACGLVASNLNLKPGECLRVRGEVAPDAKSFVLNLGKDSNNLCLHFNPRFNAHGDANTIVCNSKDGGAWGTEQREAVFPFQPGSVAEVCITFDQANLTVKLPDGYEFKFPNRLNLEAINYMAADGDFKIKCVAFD

The target of the next test is human Gal-3 (hGal-3) (Homo sapiens (Human), UniProt P17931). The experiment in a line: competitive binding assay: biotinylated hGal-3 binding to microplate-adsorbed asialofetuin (ASF). In outline:
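Peroxidase activity developed with ABTS measures the biotinylated hGal-3 remaining on the asialofetuin-coated surface after competition with test compounds. Incubation ran 3 h at 4 °C, followed by 1 h with streptavidin-peroxidase at 80 ng/mL.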

The mark [1] stands for this setting: Gal-3 inhibition, binding of biotinylated hGal-3 to ASF, mean values, read-out: IC50.
Setting [2] is: Table 5, read-out: IC50 (Gal-3 inhibition).

Where two headings read alike, the source gives them in different places.

human Gal-3 (hGal-3), sequence (P17931 whole entry): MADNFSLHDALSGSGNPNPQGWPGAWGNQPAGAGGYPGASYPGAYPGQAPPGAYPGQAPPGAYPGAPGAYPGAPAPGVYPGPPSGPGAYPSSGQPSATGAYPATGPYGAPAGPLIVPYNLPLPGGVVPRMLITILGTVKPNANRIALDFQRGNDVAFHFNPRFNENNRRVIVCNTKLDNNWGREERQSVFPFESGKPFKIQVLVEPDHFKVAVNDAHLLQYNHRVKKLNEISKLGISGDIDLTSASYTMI

Consider `Cc1c(F)cc(-c2cn([C@H]3[C@@H](O)[C@@H](CO)O[C@@H](S[C@@H](c4ccccc4C(F)(F)F)C(C)(C)O)[C@@H]3O)nn2)cc1F` [Example 3.31.112S., (2S,3R,4S,5R,6R)-4-(4-(3,5-Difluoro-4-methylphenyl)-1H-1,2,3-triazol-1-yl)-2-(((S)-2-hydroxy-2-methyl-1-(2-(trifluoromethyl)phenyl)propyl)thio)-6-(hydroxymethyl)tetrahydro-2H-pyran-3,5-diol], for which the IC50 on human Gal-1 (hGal-1) came out at 54.2 µM; at human Gal-3 (hGal-3) (setting [1]), 4850 nM.

Regarding `CC(C)(O)[C@@H](S[C@@H]1O[C@H](CO)[C@H](O)[C@H](n2cc(-c3cc(F)c(F)c(F)c3)nn2)[C@H]1O)c1ccccc1C1CC1` [Example 2.31.106S., (2S,3R,4S,5R,6R)-2-(((S)-1-(2-cyclopropylphenyl)-2-hydroxy-2-methylpropyl)thio)-6-(hydroxymethyl)-4-(4-(3,4,5-trifluorophenyl)-1H-1,2,3-triazol-1-yl)tetrahydro-2H-pyran-3,5-diol], the IC50 was determined as 65 µM at human Gal-1 (hGal-1) and 15900 nM on human Gal-3 (hGal-3) (setting [1]).

As to `Cc1nc(C)c([C@@H](S[C@@H]2O[C@H](CO)[C@H](O)[C@H](n3cc(-c4cc(F)c(F)c(F)c4)nn3)[C@H]2O)C2(O)CCN(C)CC2)nc1C` [Example 2.40.119R., (2S,3R,4S,5R,6R)-2-(((R)-(4-Hydroxy-1-methylpiperidin-4-yl)(3,5,6-trimethylpyrazin-2-yl)methyl)thio)-6-(hydroxymethyl)-4-(4-(3,4,5-trifluorophenyl)-1H-1,2,3-triazol-1-yl)tetrahydro-2H-pyran-3,5-diol], the IC50 at human Gal-1 (hGal-1) worked out at 0.11 µM; at human Gal-3 (hGal-3) (setting [1]), 50 nM.

For `CO[C@@H]1[C@@H](n2cc(-c3cc(F)c(F)c(F)c3)nn2)[C@@H](O)[C@@H](CO)O[C@H]1SC(c1nccc(Cl)c1Cl)C1(O)CCC(F)(F)CC1` (stereo partly drawn) [Example 2.44.143.I., (2R,3R,4S,5R,6S)-6-(((3,4-Dichloropyridin-2-yl)(4,4-difluoro-1-hydroxycyclohexyl)methyl)thio)-2-(hydroxymethyl)-5-methoxy-4-(4-(3,4,5-trifluorophenyl)-1H-1,2,3-triazol-1-yl)tetrahydro-2H-pyran-3-ol], the IC50 at human Gal-1 (hGal-1) was 0.85 µM; at human Gal-3 (hGal-3) (Table 11, read-out: IC50 (Gal-3 inhibition)), 140 nM.

As to `Cc1cccnc1[C@H](S[C@@H]1O[C@H](CO)[C@H](O)[C@H](n2cc(-c3cc(F)c(F)c(F)c3)nn2)[C@H]1O)C1(O)CCS(=O)(=O)CC1` [Example 2.66.126S., 4-((S)-(((2S,3R,4S,5R,6R)-3,5-Dihydroxy-6-(hydroxymethyl)-4-(4-(3,4,5-trifluorophenyl)-1H-1,2,3-triazol-1-yl)tetrahydro-2H-pyran-2-yl)thio)(3-methylpyridin-2-yl)methyl)-4-hydroxytetrahydro-2H-thiopyran 1,1-dioxide], the IC50 was determined as 16.5 µM at human Gal-1 (hGal-1) and 2000 nM at human Gal-3 (hGal-3) (setting [1]).

Take `Cc1conc1[C@@H](S[C@@H]1O[C@H](CO)[C@H](O)[C@H](n2cc(-c3cc(F)c(F)c(F)c3)nn2)[C@H]1O)C1(O)CCCCC1` [Example 2.39.120R., (2S,3R,4S,5R,6R)-2-(((R)-(1-Hydroxycyclohexyl)(4-methylisoxazol-3-yl)methyl)thio)-6-(hydroxymethyl)-4-(4-(3,4,5-trifluorophenyl)-1H-1,2,3-triazol-1-yl)tetrahydro-2H-pyran-3,5-diol]: the IC50 at human Gal-1 (hGal-1) amounted to 0.61 µM; on human Gal-3 (hGal-3) (setting [2]), 200 nM.

In the case of `Cc1nc(C)c([C@@H](S[C@@H]2O[C@H](CO)[C@H](O)[C@H](n3cc(-c4cc(F)c(F)c(F)c4)nn3)[C@H]2O)C2(O)CCC(F)(F)CC2)nc1C` [Example 2.44.119R., (2S,3R,4S,5R,6R)-2-(((R)-(4,4-Difluoro-1-hydroxycyclohexyl)(3,5,6-trimethylpyrazin-2-yl)methyl)thio)-6-(hydroxymethyl)-4-(4-(3,4,5-trifluorophenyl)-1H-1,2,3-triazol-1-yl)tetrahydro-2H-pyran-3,5-diol], the IC50 on human Gal-1 (hGal-1) was determined as 0.23 µM; on human Gal-3 (hGal-3) (setting [2]), 30 nM.

Regarding `Cc1ccccc1C(O)C(S[C@@H]1O[C@H](CO)[C@H](O)[C@H](n2cc(-c3cc(F)c(F)c(F)c3)nn2)[C@H]1O)c1ccccc1C(F)(F)F` (stereo partly drawn) [Example 2.62.112., (2S,3R,4S,5R,6R)-2-((2-Hydroxy-2-(o-tolyl)-1-(2-(trifluoromethyl)phenyl)ethyl)thio)-6-(hydroxymethyl)-4-(4-(3,4,5-trifluorophenyl)-1H-1,2,3-triazol-1-yl)tetrahydro-2H-pyran-3,5-diol], the IC50 was 11.7 µM at human Gal-1 (hGal-1) and 1220 nM on human Gal-3 (hGal-3) (setting [1]).

Take `OC[C@H]1O[C@@H](SC(c2ccccc2C(F)(F)F)C2(O)CCC(F)(F)CC2)[C@H](O)[C@@H](n2cc(-c3cc(F)c(F)c(F)c3)nn2)[C@H]1O` (stereo partly drawn) [Example 2.44.112., (2S,3R,4S,5R,6R)-2-(((4,4-Difluoro-1-hydroxycyclohexyl)(2-(trifluoromethyl)phenyl)methyl)thio)-6-(hydroxymethyl)-4-(4-(3,4,5-trifluorophenyl)-1H-1,2,3-triazol-1-yl)tetrahydro-2H-pyran-3,5-diol]: the IC50 on human Gal-1 (hGal-1) turned out to be 0.95 µM; on human Gal-3 (hGal-3) (setting [2]) it was 300 nM.

`CC(C)c1cccnc1[C@H](S[C@@H]1O[C@H](CO)[C@H](O)[C@H](n2cc(-c3cc(F)c(F)c(F)c3)nn2)[C@H]1O)C1(O)CCC(F)(F)CC1` [Example 2.44.132S., (2S,3R,4S,5R,6R)-2-(((S)-(4,4-Difluoro-1-hydroxycyclohexyl)(3-isopropylpyridin-2-yl)methyl)thio)-6-(hydroxymethyl)-4-(4-(3,4,5-trifluorophenyl)-1H-1,2,3-triazol-1-yl)tetrahydro-2H-pyran-3,5-diol]: the values for the IC50 at human Gal-1 (hGal-1) and at human Gal-3 (hGal-3) (setting [1]) were 4.7 µM and 2270 nM, respectively.

With “(2S,3R,4S,5R,6R)-2-(((4-Hydroxy-2,2,6,6-tetramethyltetrahydro-2H-pyran-4-yl)(2-(trifluoromethyl)phenyl)methyl)thio)-6-(hydroxymethyl)-4-(4-(3,4,5-trifluorophenyl)-1H-1,2,3-triazol-1-yl)tetrahydro-2H-pyran-3,5-diol [Example 2.42.102.]”, the IC50 on human Gal-1 (hGal-1) is 18.5 µM; at human Gal-3 (hGal-3) (setting [2]), 380 nM.

`CC(C)(O)[C@H](S[C@@H]1O[C@H](CO)[C@H](O)[C@H](n2cc(-c3cc(F)c(F)c(F)c3)nn2)[C@H]1O)c1ccccc1C(F)(F)F` [Example 2.31.112R., (2S,3R,4S,5R,6R)-2-(((R)-2-Hydroxy-2-methyl-1-(2-(trifluoromethyl)phenyl)propyl)thio)-6-(hydroxymethyl)-4-(4-(3,4,5-trifluorophenyl)-1H-1,2,3-triazol-1-yl)tetrahydro-2H-pyran-3,5-diol]: the IC50 was found to be 2.61 µM at human Gal-1 (hGal-1) and 290 nM on human Gal-3 (hGal-3) (setting [1]).

Turning to “(2S,3R,4S,5R,6R)-2-(((R)-((R)-4-Hydroxy-2,2-dimethyltetrahydro-2H-pyran-4-yl)(o-tolyl)methyl)thio)-6-(hydroxymethyl)-4-(4-(3,4,5-trifluorophenyl)-1H-1,2,3-triazol-1-yl)tetrahydro-2H-pyran-3,5-diol [Example 2.43.112RR.]”, the IC50 at human Gal-1 (hGal-1) is 6.8 µM; at human Gal-3 (hGal-3) (setting [2]), 1500 nM.

As to `CC(C)c1ccccc1[C@@H](S[C@@H]1O[C@H](CO)[C@H](O)[C@H](n2cc(-c3cc(F)c(F)c(F)c3)nn2)[C@H]1O)C(C)(C)O` [Example 2.31.105R., (2S,3R,4S,5R,6R)-2-(((R)-2-Hydroxy-1-(2-isopropylphenyl)-2-methylpropyl)thio)-6-(hydroxymethyl)-4-(4-(3,4,5-trifluorophenyl)-1H-1,2,3-triazol-1-yl)tetrahydro-2H-pyran-3,5-diol], the IC50 on human Gal-1 (hGal-1) came to 0.16 µM; on human Gal-3 (hGal-3) (setting [1]) it was 60 nM.
